Target: T1, DcVAO (vanillyl alcohol oxidase) (Diplodia corticola, UniProt A0A1J9QSC2)
T1 construct: gene BKCO1_4900020
Test: specific activity of purified enzyme, xylenol orange H2O2 assay
Format: biochemical

T1 sequence (A0A1J9QSC2 entry or part of it): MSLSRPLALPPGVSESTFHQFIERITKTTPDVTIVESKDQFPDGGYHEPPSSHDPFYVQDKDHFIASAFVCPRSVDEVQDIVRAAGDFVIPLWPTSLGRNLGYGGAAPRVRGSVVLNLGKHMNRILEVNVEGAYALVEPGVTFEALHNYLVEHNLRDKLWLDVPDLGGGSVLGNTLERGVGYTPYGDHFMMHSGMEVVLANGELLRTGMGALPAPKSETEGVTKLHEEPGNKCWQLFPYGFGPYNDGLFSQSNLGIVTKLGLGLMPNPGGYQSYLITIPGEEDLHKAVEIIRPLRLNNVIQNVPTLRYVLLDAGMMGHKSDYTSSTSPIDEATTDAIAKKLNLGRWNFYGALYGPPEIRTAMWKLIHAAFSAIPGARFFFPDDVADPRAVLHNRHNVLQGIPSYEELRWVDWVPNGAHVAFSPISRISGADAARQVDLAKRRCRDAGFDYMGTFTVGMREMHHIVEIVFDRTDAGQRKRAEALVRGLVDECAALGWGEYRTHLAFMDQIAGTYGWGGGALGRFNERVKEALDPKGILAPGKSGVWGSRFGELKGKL

For `COc1cc(CO)cc(OC)c1O` [compound 6, 4-(hydroxymethyl)-2,6-dimethoxyphenol], the “specific activity of purified enzyme, xylenol orange H2O2 assay” value was 6.3 ± 0.5 U mg^−1.
